Laboratory results taken from patent EP4775577A1, “RAS INHIBITOR” (Tyligand Bioscience (Shanghai) Limited, priority 2023, dated 2025).
Like-named read-outs stand apart in the source and are kept apart here.

Assays:
Pharmacokinetics in mice = settings: mouse, po, 20 mg/kg
Protocol: Male CD-1 mice, aged 6-8 weeks, were purchased from Zhejiang Vital River Laboratory Animal Co., Ltd.
For the PO administration group, compounds were formulated in 0.5% Tween 80 and 99.5% (0.5%MC (400cp)) vehicle or 0.5%MC (400cp) vehicle to a final concentration of 1 mg/mL or 2 mg/mL for each compound. The drug formulation was administered to CD-1 mice via gavage at a dose of 10 mL/kg. Blood samples were collected from the submandibular vein or other suitable means at 15 min, 30 min, 1 h, 2 h, 4 h, 6 h, 8 h, and 24 h after administration. The blood samples were centrifuged at low temperature for 5 minutes, and the plasma was collected and stored at -80°C for analysis.
10 µL of plasma sample was taken, 200 µL of methanol containing an internal standard as a precipitant was added to precipitate plasma proteins, the compounds to be tested in the plasma was extracted, centrifuged at low temperature, and 10 µL of the supernatant was injected. The drug concentration in blood plasma was analyzed by LC-MS/MS. The pharmacokinetic parameters were calculated using Winnonlin based on the blood drug concentration data at different time points.

[1] = tested on: KRAS G12D mutant AGS cells; experiment: Proliferation inhibition of AGS cells, CellTiter-Glo assay; format: cell-based, human
In short: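 AGS cells at 1500 cells/well in F12K + 10% FBS were exposed for 3 days at 37°C to nine 3-fold dilutions from 10 µM top concentration, in duplicate. Viability read by CellTiter-Glo luminescence; IC50 (nM) from dose-response-inhibition fitting.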

[2] = tested on: KRAS G12V mutant NCI-H727 cells; experiment: Proliferation inhibition of NCI-H727 cells, 3D CellTiter-Glo assay (Method B); format: cell-based, human; settings: Method B, 3D culture with 0.65% methylcellulose, 5 days, CTG, read-out: NCI-H727 IC50/nM
In short: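 Cells grown in 3D medium (RPMI-1640, 10% FBS, 0.65% methylcellulose) overnight, then treated 5 days at 37 °C, 5% CO2 with 9 threefold dilutions from 10 µM top working concentration, duplicate wells. CellTiter-Glo luminescence read; IC50 (nM) fitted by dose-response-inhibition equation.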

[3] = tested on: KRAS G12S mutant A549 cells; experiment: Proliferation inhibition of A549 cells, 3D CellTiter-Glo assay; format: cell-based; settings: Homo sapiens, A549, 120 h, read-out: A549 IC50/nM
Protocol: A549 cells (Nanjing Kebai Biotechnology Co., Ltd., catalog number CBP60084, adherent, culture medium (F12K Nutrient Mixture+10%FBS (GIBCO, Cat#10091-148) at 37°C, 5%CO2, and 95% humidity.
3D Cell Viability Assay: Cells in the logarithmic growth phase were harvested and counted using a platelet counter. Cell viability was assessed using the trypan blue exclusion method to ensure a viability of over 90%. The 3D cell culture medium was prepared by adding 1% MC (methylcellulose, Sigma, Cat#M0512) F-12K medium and 10% FBS. The cell concentration was adjusted to approximately 7407 cells/mL using the 3D medium, and the methylcellulose (MC) content was set to 0.65%. Then, 135 µL of cell suspension was added to each 96-well clear, flat-bottomed, black-walled plate (Greiner, Cat#655096). The cells in the 96-well plates were cultured overnight at 37°C with 5% CO2.
Drug preparation for IC50 assay: A 10-fold drug solution was prepared using culture medium. […] of the drug solution was added to each well of a 96-well plate seeded with cells to achieve a working concentration of up to 10 µM, with a 3× dilution, and 9 concentrations. 2 replicate wells for each drug concentration were set. The cells in the drug-treated 96-well plates were cultured at 37°C and 5% CO^2 for additional5 days, then CTG assay (CellTiter-Glo® Luminescent Cell Viability Assay (Promega, Cat#G7573)) were performed.
The cell plate was equilibrated to room temperature for 30 minutes and the CTG reagent was thawed. 75 µL of CTG solution was added to each well for detection, and the plate was shaken on an orbital shaker for 5 minutes to lyse the cells. The cell plate was placed at room temperature for 25 minutes to stabilize the cryo-luminescence signal and the cryo-luminescence value was read (EnVision® multi-plate reader, PerkinElmer#2105).
Data was analyzed using GraphPad Prism software. The dose-response-inhibition equation was used to fit the data to obtain the dose-response curve, and the IC50 value (nM) was calculated accordingly. [formula]

[4] = Homo sapiens, AGS, 72 h, 3 days, CTG, read-out: AGS IC50/nM

SMILES | AUC(0-t) at 8 h (Pharmacokinetics in mice; plasma) [ng·h/mL] | IC50 [1, 4] [nM] | IC50 ([2]; Homo sapiens, NCI-H727, 120 h) [nM] | AUC(0-t) at 8 h (Pharmacokinetics in mice; in vivo) [ng·h/mL] | IC50 [3] [nM] | IC50 ([1]; 3 days, CTG, read-out: AGS IC50/nM) [nM] | IC50 [2] [nM] | IC50 ([1]; Homo sapiens, AGS, 72 h, read-out: AGS IC50/nM, 3 days, CTG) [nM]
CCN1CC/C(=C\F)[C@](C)(COc2nc(N3Cc4c(COC)c(C(=O)N(C)C)nn4CC[C@@H]3C)c3cc(Cl)c(-c4c(F)ccc5sc(N)c(C#N)c45)c(C(F)F)c3n2)C1 (atropisomer, axis not shown) [Example 241A] | 1660 | 8.3 | 6.5 | – | – | – | – | –
[2H]C([2H])([2H])C([2H])([2H])N1CC/C(=C\F)[C@](C)(COc2nc(N3Cc4c(COC)c(C(=O)N(C)C)nn4CC[C@@H]3C)c3cc(Cl)c(-c4c(F)ccc5sc(N)c(C#N)c45)c(F)c3n2)C1 (atropisomer, axis not shown) [Example 243A] | 9960 | < 1.5 | < 1.5 | – | – | – | – | –
CCN1CC/C(=C\F)[C@](C)(COc2nc(N3Cc4cc(C(=O)N(C)C)nn4CC[C@@H]3C)c3cc(Cl)c(-c4c(F)ccc5sc(N)c(C#N)c45)c(F)c3n2)C1 (atropisomer, axis not shown) [Example 246A] | 1040 | < 1.5 | < 1.5 | – | – | – | – | –
[2H]C([2H])([2H])C([2H])([2H])N1CC/C(=C\F)[C@](C)(COc2nc(N3Cc4c(COC)c(C(=O)N(C)C)nn4CC[C@@H]3C)c3cc(Cl)c(-c4c(F)ccc5sc(N)c(C#N)c45)c(C)c3n2)C1 (atropisomer, axis not shown) [Example 249A] | – | 2.3 | < 1.5 | 5360 | – | – | – | –
CN1CC/C(=C\F)[C@](C)(COc2nc(N3CCCn4nc(C(=O)N(C)C)cc4C3)c3cc(Cl)c(-c4c(F)ccc5sc(N)c(C#N)c45)c(F)c3n2)C1 (atropisomer, axis not shown; (Ra)) [Example 93A, (Ra)-5-(7-(2-amino-3-cyano-5-fluorobenzo[b]thiophene-4-yl)-6-chloro-8-fluoro-2-(((S,E)-4-(fluoromethylene)-1,3-dimethylpiperidine-3-yl)methoxy)quinazoline-4-yl)-N,N-dimethyl-5,6,7,8-tetrahydro-4H-pyrazolo[1,5-a][1,4]diazepine-2-formamide·formate] | – | – | – | – | 32.6 | < 1.5 | 4.1 | –
CN1CC/C(=C\F)[C@](C)(COc2nc(N3CCCn4nc(C(=O)N(C)C)cc4C3)c3cc(C(F)(F)F)c(-c4cccc5sc(N)c(C#N)c45)c(F)c3n2)C1 (single isomer, unassigned) [Example 8A] | – | 1.5 | 4.4 | – | 101 | – | – | –
CN1CC/C(=C\F)[C@](C)(COc2nc(N3CCCn4nc(C(=O)N(C)C)cc4C3)c3cc(C(F)(F)F)c(-c4c(F)ccc5sc(N)c(C#N)c45)c(F)c3n2)C1 (single isomer, unassigned) [Example 28A] | – | < 1.5 | 1.8 | – | 31.2 | – | – | –
C[C@H]1CCn2nc(C(=O)N(C)C)cc2CN1c1nc(OC[C@]2(C)CN(C)CC/C2=C\F)nc2c(F)c(-c3c(F)ccc4sc(N)c(C#N)c34)c(C3CC3)cc12 (single isomer, unassigned) [Example 162A] | – | < 1.5 | 2.1 | – | 82.4 | – | – | –
CCc1cc2c(N3CCCn4nc(C(=O)N(C)C)c(Cl)c4C3)nc(OC[C@]3(C)CN(C)CC/C3=C\F)nc2c(F)c1-c1c(F)ccc2sc(N)c(C#N)c12 (single isomer, unassigned) [Example 163A] | – | – | 3.3 | – | 86.9 | – | – | < 1.52
CCc1cc2c(N3Cc4cc(C(=O)N(C)C)nn4CC[C@@H]3C)nc(OC[C@]3(C)CN(C)CC/C3=C\F)nc2c(F)c1-c1c(F)ccc2sc(N)c(C#N)c12 (single isomer, unassigned) [Example 164A] | – | < 1.5 | < 1.5 | – | 48 | – | – | –
[2H]C([2H])([2H])N1CC/C(=C\F)[C@](C)(COc2nc(N3Cc4cc(C(=O)N(C)C)nn4CC[C@@H]3C)c3cc(CC)c(-c4c(F)ccc5sc(N)c(C#N)c45)c(F)c3n2)C1 (single isomer, unassigned) [Example 173A] | – | < 1.5 | < 1.5 | – | 43.5 | – | – | –
[2H]C([2H])([2H])N1CC[C@H](C(F)F)[C@](C)(COc2nc(N3Cc4cc(C(=O)N(C)C)nn4CC[C@@H]3C)c3cc(CC)c(-c4c(F)ccc5sc(N)c(C#N)c45)c(F)c3n2)C1 (single isomer, unassigned) [Example 174A] | – | < 1.5 | 2.5 | – | 51.9 | – | – | –
